Measured values reported in patent US20110021776A1, “COMPOSITIONS FOR THE TREATMENT OF CENTRAL NERVOUS SYSTEM DISEASES AND DISORDERS” (MediProPharma, Inc., priority 2006, published 2011).
Values joined by “and” are separate entries in the source; they are usually repeats but may differ in a detail not shown here. Identical values can stand only once. Like-named read-outs stand apart in the source and are kept apart here. Marks after values point to notes of the source that are not given here. Each block holds one compound with its values, some of them ahead of it.

Tests used:
human DYRK1A [1] = biological target: T1, human DYRK1A (Homo sapiens, UniProt Q13627); assay: Human DYRK1A kinase functional assay (CEREP, LANCE detection); assay type: biochemical; design: CEREP (France), contract assay provider
Method: (II) Human DYRK1A Kinase Functional Assay and IC50 Measurements.
Compound profiling in a human DYRK1A kinase functional assay was performed by CEREP (France). The effects of compounds on the activity of human DYRK1A were evaluated and quantified by measuring the phosphorylation of the substrate Ulight-CFFKNIVTPRTPPPSQGK-amide (MBP) using a human recombinant enzyme and the LANCE® detection method, as described by Himpel et al, J. Biol. Chem., 275: 2431 (2000). The inhibitory activity of the compounds was expressed as a percent inhibition of the control kinase activity. Activities of the compounds at 50% or higher inhibition were selected for IC50 determination. Compounds were tested at 6 concentrations in duplicate for IC50 determination. The standard inhibitory reference compound was staurosporine, which was tested in each experiment at 8 concentrations to obtain an inhibition curve from which its IC50 value was calculated.
In certain embodiments, compounds have a low IC50 value in the DYRK1A kinase functional assay. […] The human DYRK1A kinase functional assay has been used to test the compounds of the Examples disclosed.

human DYRK1A [2] = biological target: T1, human DYRK1A; assay: Human DYRK1A kinase competitive binding assay (Ambit Biosciences); design: Ambit Biosciences (San Diego, Calif., USA), contract assay provider
Method: (I) Human DYRK1A Kinase Binding Assay and Binding Constant Measurements. Human DYRK1A kinase profiles in a competitive binding assay were performed by Ambit Biosciences (San Diego, Calif., USA). Activity was recorded via a competition binding assay of human DYRK1A kinase that was fused to a proprietary tag. Measurements of the amount of DYRK1A kinase bound to an immobilized, active-site directed ligand in the presence and absence of the test compound provided a percentage of DMSO control for binding of ligand. Activities between 1% and 10% were selected for Kd determination. Dendrogram representations were generated by an in-house visualization tool designated as PhyloChem. In certain embodiments, compounds have a low Kd value in the DYRK1A kinase binding assay. […] The human DYRK1A kinase binding assay has been used to test the compounds of the Examples disclosed.

[3] = Brain/plasma pharmacokinetics, single i.v. bolus in rats; assay type: in vivo, Sprague-Dawley rats; details: 10 mg/kg bolus i.v., normal rats; for Kp / concentration at 0.25 h / concentration at 1 h / concentration at 4 h: intravenous; for Kp: read-out: BAUC/PAUC Ratio; for AUC(0-t): read-out: AUC0-t of Plasma
Method: (§1) (IV) Pharmacokinetic Studies
(§2) The pharmacokinetic studies in Sprague-Dawley rats were performed using the protocols developed by WuXi AppTec (St. Paul, Minn., USA, and Shanghai, China. http://www.apptecls.com/).
The brain exposure of the compound of Example 1 is about […] higher than that required for inhibition of DYRK1A, with a Kd and IC50 at about 1 uM, or 280 ng/mL.

[4] = Plasma pharmacokinetics, single dose in rats; assay type: in vivo, Sprague-Dawley rats; details: normal rats; for MRT inf: read-out: MRT0-inf; for MRT last: read-out: MRT0-last; for Vd: read-out: Vdss
Method: as §1, §2

[5] = Sprague-Dawley, rat, iv, i.v. 2 mg/kg, plasma
[6] = Sprague-Dawley, rat, iv, i.v. 10 mg/kg, plasma
[7] = Sprague-Dawley, rat, plasma, iv, i.v. 2 mg/kg
[8] = Sprague-Dawley, rat, plasma, iv, i.v. 10 mg/kg
[9] = Sprague-Dawley, rat, po, p.o. 10 mg/kg, plasma

SMILES: Cc1nc2c(c3c1[nH]c1ccccc13)C(=O)CC(C)(C)C2 [Example 1, 3,3,6-trimethyl-2,3,4,7-tetrahydroindolo[2,3-c]quinolin-1-one]
- Kd (human DYRK1A [2]): < 10000 nM and < 1000 nM and ~1000 nM
- IC50 (human DYRK1A [1]): < 2 µM and ~1 µM
- AUC0-t of Brain ([3]; t = 0.25 h): 2409 ng·h/g
- AUC0-t of Brain ([3]; t = 1 h): 4727 ng·h/g
- AUC0-t of Brain ([3]; t = 4 h): 5924 ng·h/g
- AUC0-t of Brain ([3]; t = 8 h, the data is the value of AUC(inf)): 6020^b ng · h/g
- AUC0-t of Brain ([3]; t = 24 h, the data is the value of AUC(inf)): 6020^b ng · h/g
- Kp ([3]; Sprague-Dawley, rat, brain and plasma, 10 mg/kg, t = 0.25 h, BrainAUC(0-t)/PlasmaAUC(0-t)): 3.04
- Kp ([3]; Sprague-Dawley, rat, brain and plasma, 10 mg/kg, t = 1 h, BrainAUC(0-t)/PlasmaAUC(0-t)): 2.81
- Kp at 0.25 h ([3]; Sprague-Dawley, rat, brain and plasma, iv, 10 mg/kg, time 0.25 h, read-out: Brain/Plasma Ratio): 2.89
- Kp at 1 h ([3]; Sprague-Dawley, rat, brain and plasma, iv, 10 mg/kg, time 1 h, read-out: Brain/Plasma Ratio): 2.17
- Kp ([3]; Sprague-Dawley, rat, brain, 10 mg/kg, t = 4 h, BrainAUC(0-t)/PlasmaAUC(0-t)): 2.6
- Kp ([3]; Sprague-Dawley, rat, brain, 10 mg/kg, t = 8 h): 2.56
- Kp ([3]; Sprague-Dawley, rat, brain, 10 mg/kg, t = 24 h): 2.56
- concentration at 0.25 h ([3]; Sprague-Dawley, rat, brain, time 0.25 h, read-out: Mean concentration in brain): 6900 ng/mL
- concentration at 1 h ([3]; Sprague-Dawley, rat, brain, time 1 h, read-out: Mean concentration in brain): 1030 ng/mL
- concentration at 4 h ([3]; Sprague-Dawley, rat, brain, time 4 h, read-out: Mean concentration in brain): 99.4 ng/mL
- Kp at 4 h ([3]; Sprague-Dawley, rat, brain, iv, 10 mg/kg, time 4 h, read-out: Brain/Plasma Ratio): 1.69
- concentration at 0.25 h ([3]; Sprague-Dawley, rat, plasma, time 0.25 h, read-out: Mean concentration in plasma): 2390 ng/mL
- concentration at 1 h ([3]; Sprague-Dawley, rat, plasma, time 1 h, read-out: Mean concentration in plasma): 476 ng/mL
- concentration at 4 h ([3]; Sprague-Dawley, rat, plasma, time 4 h, read-out: Mean concentration in plasma): 58.7 ng/mL
- AUC(0-t) ([3]; Sprague-Dawley, rat, plasma, iv, 10 mg/kg, t = 0.25 h): 792 ng·h/mL
- AUC(0-t) ([3]; Sprague-Dawley, rat, plasma, iv, 10 mg/kg, t = 1 h): 1680 ng·h/mL
- AUC(0-t) ([3]; Sprague-Dawley, rat, plasma, iv, 10 mg/kg, t = 4 h): 2280 ng·h/mL
- AUC(0-t) ([3]; Sprague-Dawley, rat, plasma, iv, 10 mg/kg, t = 8 h, the data is the value of AUC(inf)): 2350 ng·h/mL
- AUC(0-t) ([3]; Sprague-Dawley, rat, plasma, iv, 10 mg/kg, t = 24 h, the data is the value of AUC(inf)): 2350 ng·h/mL
- AUC(0-inf) [4, 5]: 316 ng·h/mL
- AUC(0-t) [4, 5]: 312 ng·h/mL
- half-life [4, 5]: 22.2 min
- MRT inf [4, 5]: 21.9 min
- MRT last [4, 5]: 19.9 min
- AUC(0-inf) [4, 6]: 2350 ng·h/mL
- AUC(0-t) [4, 6]: 2280 ng·h/mL
- half-life [4, 6]: 45.9 min
- MRT inf [4, 6]: 53.6 min
- MRT last [4, 6]: 46.4 min
- clearance [4, 7]: 106 mL/min/kg
- Vd [4, 7]: 2.31 L/kg
- clearance [4, 8]: 71.1 mL/min/kg
- Vd [4, 8]: 3.81 L/kg
- bioavailability ([4]; Sprague-Dawley, rat, plasma, po, p.o. 10 mg/kg, calculated using AUC0-inf, read-out: F (absolute oral bioavailability)): 34%
- AUC(0-inf) [4, 9]: 544 ng·h/mL
- AUC(0-t) [4, 9]: 541 ng·h/mL
- Cmax [4, 9]: 1860 ng/mL
- Tmax [4, 9]: 15 min
- half-life [4, 9]: 49.3 min
- MRT inf [4, 9]: 39.3 min
- MRT last [4, 9]: 36.6 min
- AUCExtra ([4]; i.v. 2 mg/kg, plasma): 1.49%
- Co ([4]; i.v. 2 mg/kg, plasma): 1665 ng/mL
- CL0-last ([4]; i.v. 10 mg/kg): 73.1 mL/min/kg
- Vdss0-last ([4]; i.v. 10 mg/kg): 3.39 L/kg
- Co ([4]; i.v. 10 mg/kg, plasma): 4100 ng/mL
- AUCExtra ([4]; p.o. 10 mg/kg, plasma): 0.672%
- melting point: 178.3 to 180.7 °C

SMILES: COc1ccc2[nH]c3cnc4c(c3c2c1)C(=O)CC(C)(C)C4 [Example 14, 10-methoxy-3,3-dimethyl-2,3,4,7-tetrahydroindolo[2,3-c]quinolin-1-one]
- IC50 (human DYRK1A [1]): < 10 µM

SMILES: CCc1nc2c(c3c1[nH]c1cccc(F)c13)C(=O)CC(C)(C)C2 [Example 15, 11-fluoro-6-ethyl-3,3,-dimethyl-2,3,4,7-tetrahydroindolo[2,3-c]quinolin-1-one]
- IC50 (human DYRK1A [1]): < 5 µM

SMILES: COc1ccc2[nH]c3c(C)nc4c(c3c2c1)C(=O)CC(C)(C)C4 [Example 6, 10-methoxy-3,3,6-trimethyl-2,3,4,7-tetrahydroindolo[2,3-c]quinolin-1-one]
- Kd (human DYRK1A [2]): < 5000 nM

SMILES: Cc1nc2c(c3c1[nH]c1ccc(Cl)cc13)C(=O)CC(C)(C)C2 [Example 13, 10-chloro-3,3,6-trimethyl-2,3,4,7-tetrahydroindolo[2,3-c]quinolin-1-one]
- IC50 (human DYRK1A [1]): < 5 µM

SMILES: Cc1nc2c(c3c1[nH]c1ccccc13)C(=O)CC(C)C2 (centres unmarked) [Example 8, 3,6-dimethyl-2,3,4,7-tetrahydroindolo[2,3-c]quinolin-1-one]
- IC50 (human DYRK1A [1]): < 5 µM

SMILES: Cc1nc2c(c3c1[nH]c1ccccc13)C(=O)CC1(CCCCC1)C2 [Example 12, 6-methyl-3′H-spirocyclohexane-2,3,4,7-tetrahydroindolo[2,3-c]quinolin-1-one]
- IC50 (human DYRK1A [1]): < 10 µM

SMILES: CCc1nc2c(c3c1[nH]c1ccccc13)C(=O)CC(C)(C)C2 [Example 10, 6-ethyl-3,3-dimethyl-2,3,4,7-tetrahydro-indolo[2,3-c]quinolin-1-one]
- IC50 (human DYRK1A [1]): < 5 µM

Second part, the compound after the results:

- IC50 (human DYRK1A [1]): < 5 µM
SMILES: CC1(C)CC(=O)c2c(ncc3[nH]c4ccccc4c23)C1 [Example 11, 3,3-dimethyl-2,3,4,7-tetrahydroindolo[2,3-c]quinolin-1-one]

- Kd (human DYRK1A [2]): < 1000 nM
- IC50 (human DYRK1A [1]): < 2 µM
SMILES: Cc1nc2c(c3c1[nH]c1ccc(F)cc13)C(=O)CC(C)(C)C2 [Example 4, 10-fluoro-3,3,6-trimethyl-2,3,4,7-tetrahydroindolo[2,3-c]quinolin-1-one]

- Kd (human DYRK1A [2]): < 1000 nM
- IC50 (human DYRK1A [1]): < 5 µM
SMILES: Cc1nc2c(c3c1[nH]c1cccc(F)c13)C(=O)CC(C)(C)C2 [Example 2, 11-fluoro-3,3,6-trimethyl-2,3,4,7-tetrahydroindolo[2,3-c]quinolin-1-one]

- IC50 (human DYRK1A [1]): < 2 µM
SMILES: CCc1nc2c(c3c1[nH]c1ccc(F)cc13)C(=O)CC(C)(C)C2 [Example 16, 10-fluoro-6-ethyl-3,3,-dimethyl-2,3,4,7-tetrahydroindolo[2,3-c]quinolin-1-one]
